Experimental data published in article PMC6915683, “Characterization of Maltase and Sucrase Inhibitory Constituents from Rhodiola crenulata” (Foods, 2019).
“Also recorded” adds a separate entry of the source. Where two headings read alike, the source gives them in different places.

How the values were obtained:
maltase [1] = test system: maltase; set-up: method as in PMID 19772492; details: kinetic analysis; cited from earlier work
sucrase [2] = test system: sucrase; set-up: method as in PMID 19772492; details: cited from earlier work
maltase [3] = molecular target: T1, maltase (Saccharomyces cerevisiae, UniProt P53341); test: Maltase inhibitory activity assay (maltose substrate, glucose oxidase method); format: biochemical; details: for inhibition at 10 µM: read-out: maltase inhibition
T1 construct: purchased Sigma Chemical Co. (St. Louis, MO, USA)
Method: (§1) Maltase activity was characterized using the methods outlined by Adisakwattana et al. with slight modifications. Maltose and maltase derived from Saccharomyces cerevisiae (S. cerevisiae) were obtained from Sigma Chemical Co. (St. Louis, MO, USA). A reaction mixture was formulated from 30 μL of maltose (86.3 mM) with 20 μL of maltase (0.33 units/mL) and 50 μL of phosphate buffer (100 mM, pH 7.0). The mixture was incubated at 37 °C for 10 min and then at 100 °C for a further 10 min to stop the reaction. The glucose concentrations released by the reaction mixture were determined via the glucose oxidase method (glucose assay kit, Sigma Chemical Co., St. Louis, MO, USA) using a VersaMax microplate reader (Molecular Devices Corporation, Sunnyvale, CA, USA) at an absorbance wavelength of 540 nm.
All of the samples were assessed in terms of maltase inhibitory activity under a range of concentrations (0–30 μM). Maltase inhibitory activity was evaluated by dissolving the samples directly in phosphate buffer solution (100 mM, pH 7.0). Note that each sample was assayed in triplicate. Inhibitory activity was estimated in terms of IC50 values based on percent inhibition, as follows:percent inhibition (%) = [(Awithout sample − Awith sample)] × 100%/Awithout sample(1)

sucrase [4] = test: Sucrase inhibition kinetics (Lineweaver–Burk and Dixon plots); format: biochemical, Leuconostoc mesenteroides; details: for Ki / Ki’ sucrase (uncompetitive inhibition constant): Dixon plot; for Ki / mode of inhibition toward sucrase: sucrose substrate; for Ki: binding to sucrase, read-out: Ki sucrase (competitive inhibition constant); for Ki’ sucrase (uncompetitive inhibition constant): binding to sucrase–sucrose complex; for mode of inhibition toward sucrase: Lineweaver–Burk / Dixon plots
Method: Estimates of sucrase activity were obtained using the method outlined by […] et al. with slight modifications. Sucrose and sucrase derived from Leuconostoc mesenteroides were obtained from Sigma Chemical Co. (St. Louis, MO, USA). […] The mixtures were incubated at 37 °C for 60 min and then at 100 °C for a further 10 min to stop the reaction. The glucose concentrations released from the reaction mixtures were estimated via the glucose oxidase method (glucose assay kit, Sigma Chemical Co., St. Louis, MO, USA) using a VersaMax microplate reader (Molecular Devices Corporation, Sunnyvale, CA, USA) at an absorbance wavelength of 540 nm. […] Kinetics assays were conducted using substrates of various concentrations with and without inhibitors. Maltose was used as a substrate for maltase, where the initial velocity was expressed as the rate of absorbance at 540 nm per min. Sucrose was used as a substrate for sucrase, where the initial velocity was expressed as the rate of absorbance at 540 nm per 18 min. Dixon plot analysis was used to determine the competitive inhibition constant (Ki) and uncompetitive inhibition constant (Ki'). Ki was used as the equilibrium constant for the inhibition of binding to maltase and sucrase, whereas Ki' was used as the equilibrium constant for the inhibition of binding to maltase-maltose and sucrase-sucrose complexes.

sucrase [5] = test: Sucrase inhibitory activity assay (sucrose substrate, glucose oxidase method); format: biochemical, Leuconostoc mesenteroides; details: for IC50: L. mesenteroides sucrase, sucrose substrate, pH 7.0, 37 °C, mean ± SD; for sucrase inhibition: at a concentration of 20 µM
Method: Estimates of sucrase activity were obtained using the method outlined by […] et al. with slight modifications. Sucrose and sucrase derived from Leuconostoc mesenteroides were obtained from Sigma Chemical Co. (St. Louis, MO, USA). […] The mixtures were incubated at 37 °C for 60 min and then at 100 °C for a further 10 min to stop the reaction. The glucose concentrations released from the reaction mixtures were estimated via the glucose oxidase method (glucose assay kit, Sigma Chemical Co., St. Louis, MO, USA) using a VersaMax microplate reader (Molecular Devices Corporation, Sunnyvale, CA, USA) at an absorbance wavelength of 540 nm. […] All samples were assessed in terms of sucrase inhibitory activity under a range of concentrations (0-50 μM).

maltase [6] = molecular target: T1, maltase; test: Maltase inhibition kinetics (Lineweaver–Burk and Dixon plots); format: biochemical; details: for Ki’ maltase (uncompetitive inhibition constant): binding to maltase–maltose complex; for mode of inhibition toward maltase: Lineweaver–Burk / Dixon plots
Method: as §1
Kinetics assays were conducted using substrates of various concentrations with and without inhibitors. Maltose was used as a substrate for maltase, where the initial velocity was expressed as the rate of absorbance at 540 nm per min. Sucrose was used as a substrate for sucrase, where the initial velocity was expressed as the rate of absorbance at 540 nm per 18 min. Dixon plot analysis was used to determine the competitive inhibition constant (Ki) and uncompetitive inhibition constant (Ki’). Ki was used as the equilibrium constant for the inhibition of binding to maltase and sucrase, whereas Ki’ was used as the equilibrium constant for the inhibition of binding to maltase–maltose and sucrase–sucrose complexes. The Ki and Ki’ values of the maltase inhibitors were derived from Dixon plots in accordance with the methods described by Cornish-Bowden.

α-glucosidase = test system: α-glucosidase; set-up: method as in doi:10.1016/j.foodres.2014.01.029; details: cited from earlier work; for Ki / Ki’ α-glucosidase: previous results
maltase [7] = molecular target: maltase; set-up: method as in PMID 15826043; details: isolated from Siraitia grosvenori; read-out: IC50 maltase inhibitory activity; cited from earlier work
sucrase [8] = test system: sucrase; set-up: method as in PMID 15895684; details: sucrose substrate, cited from earlier work
sucrose in rats = test system: sucrose in rats; set-up: method as in PMID 20629879; details: read-out: IC50 against sucrose in rats; cited from earlier work
rat maltase [9] = molecular target: rat maltase; set-up: method as in PMID 28914528; details: cited from earlier work
maltase [10] = test system: maltase; set-up: method as in PMID 32218677; details: maltose substrate, cited from earlier work
rat sucrase = molecular target: rat sucrase; set-up: method as in PMID 28914528; details: cited from earlier work
rat maltase [11] = molecular target: rat maltase; set-up: method as in doi:10.1016/j.foodchem.2010.03.088; details: read-out: IC50 against rat maltase; cited from earlier work
rat sucrose = test system: rat sucrose; set-up: method as in doi:10.1016/j.foodchem.2010.03.088; details: read-out: IC50 against rat sucrose; cited from earlier work
[12] = S. cerevisiae maltase, maltose substrate, pH 7.0, 37 °C, mean ± SD, triplicate, read-out: IC50 Maltase

T1 sequence (P53341 whole entry): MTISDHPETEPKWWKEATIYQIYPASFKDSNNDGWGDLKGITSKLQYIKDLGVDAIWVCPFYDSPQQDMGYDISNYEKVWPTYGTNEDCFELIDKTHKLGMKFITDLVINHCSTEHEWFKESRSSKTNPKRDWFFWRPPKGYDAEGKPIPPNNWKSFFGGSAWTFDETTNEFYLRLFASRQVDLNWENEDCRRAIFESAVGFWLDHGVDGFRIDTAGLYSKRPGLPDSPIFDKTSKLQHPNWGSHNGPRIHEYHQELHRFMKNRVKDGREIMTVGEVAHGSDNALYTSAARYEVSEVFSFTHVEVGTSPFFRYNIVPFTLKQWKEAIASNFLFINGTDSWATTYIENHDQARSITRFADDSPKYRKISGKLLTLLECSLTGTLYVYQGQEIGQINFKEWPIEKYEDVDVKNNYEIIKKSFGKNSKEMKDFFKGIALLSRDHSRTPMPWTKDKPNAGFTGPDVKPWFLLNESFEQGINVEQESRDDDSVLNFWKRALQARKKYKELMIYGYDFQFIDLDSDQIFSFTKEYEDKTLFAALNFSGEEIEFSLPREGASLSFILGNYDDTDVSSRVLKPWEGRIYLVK

## O=C(O)/C=C/c1ccc(O)c(O)c1 [caffeic acid]
Maltase [1]
  mode of inhibition of maltase: mixed-inhibition manner

## COc1cc(/C=C/C(=O)O)ccc1O [ferulic acid]
Sucrase [2]
  mode of inhibition of sucrase: mixed-type manner
Maltase [1]
  mode of inhibition of maltase: mixed-inhibition manner

## Oc1cc(O)c2c(c1)O[C@H](c1ccc(O)c(O)c1)[C@H](O)C2 [EC, epicatechin]
Maltase [3]; [12]
  IC50: 6.25 ± 1.84 µM
Maltase [3]
  inhibition at 10 µM: 66.3%
Sucrase [4]
  Ki: 13.7 ± 0.15 µM
  Ki’ sucrase (uncompetitive inhibition constant): 21.36 ± 0.30 µM
  mode of inhibition toward sucrase: mixed-type inhibition; also recorded: mixed-competitive inhibitors
Sucrase [5]
  IC50: 18.9 ± 3.66 µM
  sucrase inhibition: 51.4%
Maltase [6]; Dixon plot
  Ki’ maltase (uncompetitive inhibition constant): 18.88 ± 0.22 µM
Maltase [6]; maltose substrate
  mode of inhibition toward maltase: mixed-type inhibition; also recorded: mixed-competitive inhibitors
Maltase [6]; read-out: Ki maltase (competitive inhibition constant)
  Ki: 7.02 ± 0.26 µM

## O=C(OC1Cc2c(O)cc(O)c(C3c4c(O)cc(O)cc4OC(c4ccc(O)c(O)c4)C3O)c2OC1c1ccc(O)c(O)c1)c1cc(O)c(O)c(O)c1 (stereo not drawn) [B2-3’-O-gallate, epicatechin-(4β,8)-epicatechingallate]
α-glucosidase
  mode of inhibition of α-glucosidase: mixed-competitive inhibitors
  Ki: 0.3 ± 0.03 µM
  Ki’ α-glucosidase: 1.42 ± 0.01 µM
Maltase [3]; [12]
  IC50: 1.73 ± 1.37 µM
Maltase [3]
  inhibition at 10 µM: 90.7%
Sucrase [4]
  Ki: 6.05 ± 0.04 µM
  mode of inhibition toward sucrase: mixed-type inhibition; also recorded: mixed-competitive inhibitors
Sucrase [5]
  IC50: 6.91 ± 3.41 µM
  sucrase inhibition: 84.6%
Maltase [6]; Dixon plot, maltose substrate, binding to maltase, read-out: Ki maltase (competitive inhibition constant)
  Ki: 1.99 ± 0.02 µM
Maltase [6]; Dixon plot
  Ki’ maltase (uncompetitive inhibition constant): 3.73 ± 0.08 µM
Maltase [6]; maltose substrate
  mode of inhibition toward maltase: mixed-type inhibition; also recorded: mixed-competitive inhibitors

## C[C@H](CC[C@@H](O[C@@H]1O[C@H](CO)[C@@H](O)[C@H](O)[C@H]1O[C@@H]1O[C@H](CO)[C@@H](O)[C@H](O)[C@H]1O)C(C)(C)O)[C@H]1CC[C@@]2(C)[C@H]3CC=C4[C@@H](CC[C@H](O[C@@H]5O[C@H](CO[C@@H]6O[C@H](CO)[C@@H](O)[C@H](O)[C@H]6O)[C@@H](O)[C@H](O)[C@H]5O)C4(C)C)[C@]3(C)[C@H](O)C[C@]12C [mogroside IV]
Maltase [7]
  IC50: 12000 µM

## N[C@H]1C=C(CO)[C@@H](O)[C@H](O)[C@H]1O [valienamine]
Sucrase [8]; Lineweaver–Burk plot
  mode of inhibition of sucrase: competitive inhibitor
Sucrase [8]; read-out: Ki sucrase calculated from a Dixon plot
  Ki: 0.77 µM

## C[C@H](CC[C@@H](O[C@@H]1O[C@H](CO[C@@H]2O[C@H](CO)[C@@H](O)[C@H](O)[C@H]2O)[C@@H](O)[C@H](O)[C@H]1O[C@@H]1O[C@H](CO)[C@@H](O)[C@H](O)[C@H]1O)C(C)(C)O)[C@H]1CC[C@@]2(C)[C@@H]3CC=C4[C@@H](CC[C@H](O[C@@H]5O[C@H](CO)[C@@H](O)[C@H](O)[C@H]5O)C4(C)C)[C@]3(C)[C@H](O)C[C@]12C [siamenoside I]
Maltase [7]
  IC50: 10000 µM

## Oc1cc(COCc2cc(O)c(O)c(Br)c2Br)c(Br)c(Br)c1O [bis (2,3-dibromo-4,5-dihydroxybenzyl)ether]
Sucrose in rats
  IC50: 1000 ± 30 µM

## O=C(O[C@@H]1Cc2c(O)cc(O)cc2O[C@@H]1c1cc(O)c(O)c(O)c1)c1cc(O)c(O)c(O)c1 [epigallocatechin gallate]
Rat maltase [9]
  IC50: 14 ± 2 µM
Maltase [10]; Lineweaver–Burk plot
  mode of inhibition of maltase: competitive inhibitor
Maltase [10]; read-out: Ki maltase calculated from a Dixon plot
  Ki: 5.93 ± 0.26 µM
Rat sucrase
  IC50: 950 ± 86 µM

## COc1ccc(/C=C/C(=O)O)cc1O [isoferulic acid]
Sucrase [2]
  mode of inhibition of sucrase: mixed-type manner
Maltase [1]
  mode of inhibition of maltase: mixed-inhibition manner

## O=c1c(O)c(-c2ccc(O)c(O)c2)oc2cc(O)cc(O)c12 [quercetin, reference compound]
α-glucosidase
  mode of inhibition of α-glucosidase: mixed-competitive inhibitors
Rat maltase [11]
  IC50: 4800 ± 400 µM
Rat sucrose
  IC50: 3500 ± 300 µM
Maltase [3]
  inhibition at 10 µM: 56.3%
Sucrase [4]
  Ki: 14.05 ± 0.03 µM
  mode of inhibition toward sucrase: mixed-type inhibition; also recorded: mixed-competitive inhibitors
Sucrase [5]
  IC50: 19 ± 2.53 µM
  sucrase inhibition: 51.7%
Maltase [6]; Dixon plot
  Ki’ maltase (uncompetitive inhibition constant): 14.97 ± 0.75 µM
Maltase [6]; maltose substrate
  mode of inhibition toward maltase: mixed-type inhibition; also recorded: mixed-competitive inhibitors

## O=C(O[C@@H]1Cc2c(O)cc(O)cc2O[C@@H]1c1ccc(O)c(O)c1)c1cc(O)c(O)c(O)c1 [ECG, epicatechin gallate]
α-glucosidase
  mode of inhibition of α-glucosidase: mixed-competitive inhibitors
  Ki: 0.21 ± 0.04 µM
  Ki’ α-glucosidase: 2.34 ± 0.06 µM
Maltase [3]
  IC50: 3.64 ± 2.99 µM
  inhibition at 10 µM: 87.7%
Sucrase [4]
  Ki: 8.58 ± 0.08 µM
  Ki’ sucrase (uncompetitive inhibition constant): 15.74 ± 0.32 µM
  mode of inhibition toward sucrase: mixed-type inhibition; also recorded: mixed-competitive inhibitors
Sucrase [5]
  IC50: 18.3 ± 3.99 µM
  sucrase inhibition: 56.1%
Maltase [6]
  Ki: 3.14 ± 0.04 µM
Maltase [6]; Dixon plot
  Ki’ maltase (uncompetitive inhibition constant): 6.38 ± 0.04 µM
Maltase [6]; maltose substrate
  mode of inhibition toward maltase: mixed-type inhibition; also recorded: mixed-competitive inhibitors

## C[C@H](CC[C@@H](O[C@@H]1O[C@H](CO[C@@H]2O[C@H](CO)[C@@H](O)[C@H](O)[C@H]2O)[C@@H](O)[C@H](O)[C@H]1O)C(C)(C)O)[C@H]1CC[C@@]2(C)[C@@H]3CC=C4[C@@H](CC[C@H](O[C@@H]5O[C@H](CO)[C@@H](O)[C@H](O)[C@H]5O)C4(C)C)[C@]3(C)[C@H](O)C[C@]12C [mogroside III]
Maltase [7]
  IC50: 1600 µM
